{"source": "patent US6348571B1", "about": "“Corticotropin release inhibiting factor and methods of using same” (Northwestern University, priority 1994, dated 2002)", "key": {"[1]": {"test_system": "At-20 cells", "experiment": "Inhibition of PMA- or forskolin-stimulated ACTH release in At-20 cells by small CRIF peptides", "format": "cell-based", "conditions": "PMA 100 nM, FIG. 18", "protocol": "FIG. 19 is a graph and amino acid sequences [SEQ ID NOS:1, 6 and 5, resepctively], where the graph depicts the fact that forskolin-stimulated ACTH secretion is inhibited by peptides derived from prepro-TRH 178-199. The biological activity of small CRIF peptides was tested in vitro, using inhibition of ACTH release in At-20 cells as the bioassay. These peptides were tested in 2-7 independent experiments, where treatments were added in triplicate. Forskolin was used at a concentration of 20 μM, and PMA was used at a concentration of 100 nM.\nCRIF peptides having either four contiguous amnino acids or nine contiguous amino acids positioned between the fourth and fifth TRH sequence in a rprepro-TRH polypeptide were prepared. These peptides are referred to herein as rprepro-TRH 196-199 (SEQ ID NO:5, having four contiguous amino acids) and rprepro-TRH 191-199 (SEQ ID NO:6, having nine contiguous amino acids). The CRIF activity of each of these peptides was assessed in vitro in a bioassay, wherein inhibition of ACTH release in At-20 cells was used as a measure of CRIF activity. Full length CRIF (rprepro-TRH 178-199) was used as a positive control. […] Thus, CRIF peptides having less than twenty two contiguous amino acids have CRIF activity."}, "[2]": {"test_system": "F344XBN rats", "experiment": "Forced swim test after sub-acute icv administration", "format": "in vivo", "protocol": "In FIG. 20 there is shown data which establish that prepro-TRH 191-199 decreased immobility in the forced swim test when the peptide was administered to a rat icv. In this experiment, adult male Sprague-Dawley or F1 Brown Norway/Fisher344 rats were used in these experiments. Rats were implanted with cannulae into the lateral ventricle as described previously (McGivern, 1997, J. Neurosci. 17:4886-4894). For the stereotaxic surgery, animals were anesthetized (ketamine, 50 mg/kg/xylazine, 8 mg/kg) and positioned in a stereotaxic head fame. At the end of behavioral testing, placements will be verified by anesthetizing the animal with pentobarbital (45 mg/kg) and injecting 1 μl tryphan blue staining solution through the cannulae just prior to decapitation. Only data from animals with correct placement were included in the analysis.\nAt least 7 days after the stereotaxic surgery, animals were subjected to an initial 15 minute swim pretest, followed by a 5-minute swim test 24 hours later. Rats received two injections of sterile vehicle or prepro-TRH 178-199 (1.5, 3.0, 6.0 or 12.0 μg/kg; 0.6, 1.2., 2.3 and 4.6 nmol/kg) in […] between the pretest and the test. 15 minutes after the initial (pre)-swim and 5 minutes before the test swim. In the case of prepro-TRH 191-199 administration, the C-terminal peptide was administered in this sub-acute fashion at 2.2 μg/kg (2.3 nmol/kg) dose, which is equivalent to 6 μg/kg prepro-TRH 178-199. Water was chosen instead of saline or artificial CSF for solubility reasons: the peptide dissolved much better in sterile, pyrogen-free water and animals tolerated this vehicle very well even after 14 days of daily administration. F344XBN rats were used. Prepro-TRH 191-199 had effects very similar to those of the full-length peptide."}, "[3]": {"test_system": "AtT-20 cells", "experiment": "Bioassay of synthetic prepro-TRH peptides: ACTH secretion in AtT-20 cells", "format": "cell-based, mouse", "conditions": "peptide 10^-10-10^-6 M, 4 hours, 50 nM CRF", "protocol": "(§1) The bioactivity of various synthetic peptides corresponding to the various prepro-TRH intervening sequences was assessed in AtT-20 or primary anterior pituitary cells. All experiments were conducted in triplicate. To perform this assay, AtT-20 cells were plated at a density of 10^5 cells/well in 24 well plates. After 24 hours, the medium was removed and replaced with steroid-free medium containing the test peptide at a concentration of 10^−10-10^−6 M. When primary pituitary cultures were used, freshly dispersed anterior pituitary cells (1-2×10^5 cells/well) were plated in 24 well plates for 48 hours using steroid free media. Again, after 24 hours, the medium was removed and replaced with steroid-free medium containing the test peptide at a concentration of 10^−10-10^−6 M. The supernatants from the cells were harvested after 4 hours of incubation under unstimulated or CRF-stimulated conditions. AtT-20 cells were stimulated with 50 nM CRF and primary pituitary cells were stimulated with 10 nM CRF. The supernatants were centrifuged and stored at −80° C.\n(§2) ACTH-like immunoreactivity was measured using an antiserum which reacts with amino acids 1-24 and 1-39 on ACTH on an equimolar basis. The assay is described in Redei et al. (1988, Endocrinology, 123:2736-2743). For these studies, ^125I-ACTH 1-39 was used as a tracer. This assay is capable of detecting as little as 3 pg ACTH/tube. Intraassay and interassay coefficients of variation were 6.4% and 11.6% respectively.\nPeptides prepro-TRH 115-151, 160-169 and 178-199 were obtained from Penninsula Lab Inc. (Belmont, Calif.); peptides prepro-TRH 53-74, 83-106 and TRH precursor peptide (Lys-Arg-Gln-His-Pro-Gly-Lys-Arg) were obtained from American Peptide Co. Inc. (Sunnyvale, CA); and, peptides prepro-TRH 25-50, 208-220 and 230-255 were obtained from Quality Control QCB, Hopkington, Mass."}, "[4]": {"test_system": "primary anterior pituitary cells", "experiment": "Bioassay of synthetic prepro-TRH peptides: ACTH secretion in primary anterior pituitary cells", "format": "cell-based", "conditions": "primary pituitary cell cultures, 10 nM CRF", "protocol": "as §1\nas §2, with “Intraassay and interassay coefficients of variation were 6.4% and 11.6% respectively.” left out"}, "[5]": {"test_system": "SCW-induced inflammatory response", "experiment": "Thyroid status and SCW-induced inflammatory response in female rats", "format": "in vivo, rat", "excerpt": "RA is an autoimmune disease characterized by chronic degradation of the joints resulting from inflammation of synovial membranes. SCW-induced inflammation in the autoimmune prone female Lewis rat is an accepted animal model for the study of RA. […] It is likely that increased thyroid activity decreases the susceptibility to inflammatory immune disease by increasing glucocorticoid levels. The discovery of CRIF encoded within the same precursor as TRH establishes a direct link between the HPA and thyroid axes. Thyroid hormones may play a fundamental role in regulating the HPA axis by modulation of levels of prepro-TRH mRNA.\nTo determine the role played by thyroid hormones and concomitant changes in the HPA axis in the development of SCW-induced inflammatory response, expression of genes which reflect the status of thyroid function (TRH), pituitary-adrenal activity (POMC) and inflammation (IL-1β and MIP-1α, a macrophage specific inflammatory protein) was measured. Adult female rats were fed a regular diet (control), or a regular diet plus 0.012% T4 (hyperthyroid) or 0.05% 6-propyl-thiouracil (PTU) supplied in the in drinking water (hypothyroid), for seven weeks. A preparation of SCW (20 μg/g of body weight) was administered intraperitoneally to the rats three days before decapitation. Anterior pituitary POMC, hypothalamic TRH and peritoneal macrophage IL-1β and MIP-1α mRNA levels were assessed by Northern blot hybridization analysis using specific cDNA probes. The levels of mRNA were normalized to the housekeeping gene, GAPD, and were quantified by image analysis densitometry. Plasma levels of TSH and CORT were determined by RIA."}, "[6]": {"test_system": "rats", "experiment": "Side effects in rats treated in vivo with CRIF"}}, "note": "Ends that are not written are not given here.", "data": [{"molecule": "EGEGVLMPE [prepro-TRH 191-199, CRIF peptide having nine contiguous amino acids]", "values": [{"measurement": "PMA-stimulated ACTH secretion", "setting": "[1]", "value": "capable of inhibiting ACTH secretion at levels which are comparable to those achieved using full length CRIF"}, {"measurement": "floating in the forced swim test", "setting": "[2]; icv sub-acute, equimolar 2.3 nmol/kg (2.2 μg/kg 191-199; 6 μg/kg 178-199), p<0.001", "value": "significantly decreased"}, {"measurement": "climbing in the forced swim test", "setting": "[2]; icv sub-acute, equimolar 2.3 nmol/kg (2.2 μg/kg 191-199; 6 μg/kg 178-199), p<0.01", "value": "increased"}, {"measurement": "immobility in the forced swim test", "setting": "[2]; icv, rat", "value": "decreased"}]}, {"molecule": "prepro-TRH 230-255: intervening peptide of rat prepro-TRH, amino acids 230-255 (DLSRGQETLVKQSPQVEPWDKEPLEE; UniProt P01150 230-255, looked up, fragment)", "values": [{"measurement": "bioactivity: basal and CRF-stimulated ACTH secretion", "setting": "[3]", "value": "only the peptide comprising amino acids 178-199 exhibited bioactivity"}, {"measurement": "CRIF activity (ACTH secretion)", "setting": "[4]", "value": "only peptide 178-199 exhibited CRIF activity"}]}, {"molecule": "CCCc1cc(=O)[nH]c(=S)[nH]1", "note": "[PTU, 6-propyl-thiouracil]", "values": [{"measurement": "increase in macrophage MIP-1α mRNA levels on SCW administration", "setting": "[5]; SCW 20 μg/g ip, SCW-administered control rats 17-fold", "value": 22, "unit": "fold"}, {"measurement": "plasma CORT levels", "setting": "[5]; altered thyroid status, FIG. 12E", "value": "significant decrease"}, {"measurement": "increase of hypothalamic TRH mRNA levels", "setting": "[5]; hypothyroid group, 0.05% in drinking water, seven weeks, p<0.01", "value": 52, "unit": "%"}]}, {"molecule": "prepro-TRH 160-169: intervening peptide of rat prepro-TRH, amino acids 160-169 (SFPWMESDVT; UniProt P01150 160-169, looked up, fragment)", "values": [{"measurement": "bioactivity: basal and CRF-stimulated ACTH secretion", "setting": "[3]", "value": "only the peptide comprising amino acids 178-199 exhibited bioactivity"}]}, {"molecule": "prepro-TRH 115-151: intervening peptide of rat prepro-TRH, amino acids 115-151 (ANQDKYSWADEEDSDWMPRSWLPDFFLDSWFSDVPQV; UniProt P01150 115-151, looked up, fragment)", "values": [{"measurement": "bioactivity: basal and CRF-stimulated ACTH secretion", "setting": "[3]", "value": "only the peptide comprising amino acids 178-199 exhibited bioactivity"}]}, {"molecule": "FIDPELQRSWEEKEGEGVLMPE [prepro-TRH 178-199]", "values": [{"measurement": "side effects associated with administration", "setting": "[6]", "value": "no discernible deleterious side effects"}]}, {"molecule": "prepro-TRH 25-50: intervening peptide of rat prepro-TRH, amino acids 25-50 (LPEAAQEEGAVTPDLPGLENVQVRPE; UniProt P01150 25-50, looked up, fragment)", "values": [{"measurement": "bioactivity: basal and CRF-stimulated ACTH secretion", "setting": "[3]", "value": "only the peptide comprising amino acids 178-199 exhibited bioactivity"}]}, {"molecule": "Leu-Met-Pro-Glu (LMPE; printed: Leu-Met-Pro-Glu) [prepro-TRH 196-199, CRIF peptide having four contiguous amino acids]", "values": [{"measurement": "PMA-stimulated ACTH secretion", "setting": "[1]", "value": "capable of inhibiting ACTH secretion at levels which are comparable to those achieved using full length CRIF"}]}, {"molecule": "prepro-TRH 208-220: intervening peptide of rat prepro-TRH, amino acids 208-220 (ALGHPCGPQGTCG; UniProt P01150 208-220, looked up, fragment)", "values": [{"measurement": "bioactivity: basal and CRF-stimulated ACTH secretion", "setting": "[3]", "value": "only the peptide comprising amino acids 178-199 exhibited bioactivity"}]}, {"molecule": "prepro-TRH 83-106: intervening peptide of rat prepro-TRH, amino acids 83-106 (EEEEKDIEAEERGDLGEGGAWRLH; UniProt P01150 83-106, looked up, fragment)", "values": [{"measurement": "bioactivity: basal and CRF-stimulated ACTH secretion", "setting": "[3]", "value": "only the peptide comprising amino acids 178-199 exhibited bioactivity"}]}, {"molecule": "KRQHPGKR [TRH precursor peptide]", "values": [{"measurement": "CRIF activity (ACTH secretion)", "setting": "[4]", "value": "only peptide 178-199 exhibited CRIF activity"}]}, {"molecule": "prepro-TRH 53-74: intervening peptide of rat prepro-TRH, amino acids 53-74 (FLWKDLQRVRGDLGAALDSWIT; UniProt P01150 53-74, looked up, fragment)", "values": [{"measurement": "bioactivity: basal and CRF-stimulated ACTH secretion", "setting": "[3]", "value": "only the peptide comprising amino acids 178-199 exhibited bioactivity"}]}]}
